Patent publication US11332463B2, “Spiropiperidine allosteric modulators of nicotinic acetylcholine receptors” (Merck Sharp & Dohme Corp., priority 2018, dated 2022)
Where two headings read alike, the source gives them in different places.

Biological target: T1, human α7 nicotinic acetylcholine receptor (HEK cell line stably expressing human RIC-3 and human α7) (Homo sapiens, UniProt P36544)
T1 construct: host or cells: HEK cell line (PrecisION hnAChR α7/RIC-3)
Experiment: Automated patch-clamp electrophysiology functional assay (Assay A), IonFlux HT, whole-cell population patch
Type: cell-based

[1] = HEK cells expressing human α7/RIC-3, test compound with or without 40 μM acetylcholine, holding potential −60 mV, room temperature, read-out: α7 nAChR Potency
[2] = automated patch-clamp electrophysiology functional assay (Assay A), read-out: α7 nAChR EC50

T1 sequence (P36544 23-502): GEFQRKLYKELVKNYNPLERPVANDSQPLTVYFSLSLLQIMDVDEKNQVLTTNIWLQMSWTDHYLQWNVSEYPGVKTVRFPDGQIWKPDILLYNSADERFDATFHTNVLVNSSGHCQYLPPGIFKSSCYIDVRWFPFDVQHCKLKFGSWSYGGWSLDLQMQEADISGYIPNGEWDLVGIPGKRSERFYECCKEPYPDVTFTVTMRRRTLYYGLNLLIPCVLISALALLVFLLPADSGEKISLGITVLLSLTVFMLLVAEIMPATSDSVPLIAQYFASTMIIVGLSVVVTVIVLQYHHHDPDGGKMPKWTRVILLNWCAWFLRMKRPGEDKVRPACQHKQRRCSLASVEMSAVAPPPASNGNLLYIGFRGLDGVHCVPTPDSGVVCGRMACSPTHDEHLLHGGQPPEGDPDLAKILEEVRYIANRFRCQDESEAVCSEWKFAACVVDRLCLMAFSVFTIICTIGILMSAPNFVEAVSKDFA

Row | Structure (SMILES) | EC50 [1] [µM] | EC50 [2] [µM]
1 | NS(=O)(=O)N1CCC2(CC1)[C@H](c1coc(-c3ccnc(OC(F)F)c3)n1)C2(F)F [Example 35, (2R)-2-{2-[2-(Difluoromethoxy)pyridin-4-yl]-1,3-oxazol-4-yl}-1,1-difluoro-6-azaspiro[2.5]octane-6-sulfonamide] | 0.1 to 0.5 | 0.15
2 | COc1ccc(Cl)cc1-c1noc([C@@H]2CC23CCN(S(N)(=O)=O)CC3)n1 [Example A1] | 0.1 to 0.5 | 0.49
3 | NS(=O)(=O)N1CCC2(CC1)C(c1nc(-c3ccccc3)no1)C2(F)F (centres unmarked) [Example A2] | 0.1 to 0.5 | 0.32
4 | NS(=O)(=O)N1CCC2(CC1)C[C@H]2c1nc(-c2cc(F)ccc2C(F)(F)F)no1 [Example A4] | 0.5 to 5 | 0.85
5 | NS(=O)(=O)N1CCC2(CC1)CC2c1nc(-c2conc2C2CC2)no1 (centres unmarked) [Example C4] | 0.5 to 5 | 1.1
6 | Cc1onc(C2CC2)c1-c1noc(C2C(F)(F)C23CCN(S(N)(=O)=O)CC3)n1 (centres unmarked) [Example C5] | < 0.1 | 0.011
7 | NS(=O)(=O)N1CCC2(CC1)C(c1nc(C3CCCCC3)no1)C2(F)F (centres unmarked) [Example C6] | 0.1 to 0.5 | 0.42
8 | Cc1ncccc1-c1noc(C2C(F)(F)C23CCN(S(N)(=O)=O)CC3)n1 (centres unmarked) [Example C7] | 0.5 to 5 | 1.1
9 | NS(=O)(=O)N1CCC2(CC1)C(c1nc(-c3ccnc(C(F)(F)F)c3)no1)C2(F)F (centres unmarked) [Example C8] | 0.5 to 5 | 1.3
10 | NS(=O)(=O)N1CCC2(CC1)C(c1nc(-c3ccnc(OC(F)F)c3)no1)C2(F)F (centres unmarked) [Example C9] | 0.1 to 0.5 | 0.31
11 | Cc1cnn(C2CC2)c1-c1noc(C2C(F)(F)C23CCN(S(N)(=O)=O)CC3)n1 (centres unmarked) [Example C10] | < 0.1 | 0.082
12 | NS(=O)(=O)N1CCC2(CC1)C(c1nc(-c3ccn4ccnc4c3)no1)C2(F)F (centres unmarked) [Example C11] | 0.5 to 5 | 2.5
13 | NS(=O)(=O)N1CCC2(CC1)CC2c1nc(-c2c(C(F)(F)F)noc2C2CC2)no1 (centres unmarked) [Example C12] | 0.1 to 0.5 | 0.17
14 | NS(=O)(=O)N1CCC2(CC1)C(c1nc(-c3ccnn3C3CC3)no1)C2(F)F (centres unmarked) [Example C14] | 0.1 to 0.5 | 0.15
15 | NS(=O)(=O)N1CCC2(CC1)C(c1nc(-c3c(C4CC4)noc3C(F)(F)F)no1)C2(F)F (centres unmarked) [Example C15] | < 0.1 | –
16 | NS(=O)(=O)N1CCC2(CC1)C(c1nc(-c3c(C(F)(F)F)noc3C3CC3)no1)C2(F)F (centres unmarked) [Example C16] | < 0.1 | 0.037
17 | NS(=O)(=O)N1CCC2(CC1)C[C@H]2c1noc(-c2cccc(C(F)(F)F)c2)n1 [Example D1] | 0.5 to 5 | 0.52
18 | N#Cc1ccccc1-c1nc([C@@H]2CC23CCN(S(N)(=O)=O)CC3)no1 [Example D3] | 5 to 50 | 5.3
19 | NS(=O)(=O)N1CCC2(CC1)C[C@H]2c1noc(-c2ccccc2OC(F)F)n1 [Example D4] | 0.1 to 0.5 | 0.19
20 | NS(=O)(=O)N1CCC2(CC1)C[C@H]2c1noc(-c2cc(Br)ccc2C(F)(F)F)n1 [Example D6] | 0.1 to 0.5 | –
21 | NS(=O)(=O)N1CCC2(CC1)C[C@H]2c1noc(-c2ccc(Cl)cc2C(F)(F)F)n1 [Example D7] | 0.5 to 5 | 0.59
22 | NS(=O)(=O)N1CCC2(CC1)C[C@H]2c1noc(-c2ccccc2)n1 [Example D8] | 0.5 to 5 | 1.3

Row | Structure (SMILES) | EC50 [1] [µM] | EC50 [2] [µM]
23 | NS(=O)(=O)N1CCC2(CC1)C[C@H]2c1noc(-c2ccc(C(F)(F)F)cc2OC(F)F)n1 [Example D9] | 0.5 to 5 | 0.82
24 | NS(=O)(=O)N1CCC2(CC1)C[C@H]2c1noc(-c2ccc(Cl)cc2OC(F)F)n1 [Example D10] | < 0.1 | 0.088
25 | NS(=O)(=O)N1CCC2(CC1)C[C@H]2c1noc(-c2cccc(OC(F)F)c2)n1 [Example D11] | 0.5 to 5 | 0.51
26 | NS(=O)(=O)N1CCC2(CC1)C[C@H]2c1noc(-c2c(F)cccc2C(F)(F)F)n1 [Example D12] | 0.5 to 5 | 1.2
27 | COc1ccc(-c2nc([C@@H]3CC34CCN(S(N)(=O)=O)CC4)no2)cc1 [Example D13] | 0.5 to 5 | 0.7
28 | NS(=O)(=O)N1CCC2(CC1)C[C@H]2c1noc(-c2ccc(OC(F)F)cc2)n1 [Example D14] | 0.5 to 5 | –
29 | NS(=O)(=O)N1CCC2(CC1)C[C@H]2c1noc(-c2ccc(F)cc2F)n1 [Example D15] | 0.5 to 5 | 1.2
30 | NS(=O)(=O)N1CCC2(CC1)C[C@H]2c1noc(-c2ccc(F)cc2C(F)(F)F)n1 [Example D16] | 0.1 to 0.5 | 0.16
31 | NS(=O)(=O)N1CCC2(CC1)C[C@H]2c1noc(-c2ccccc2C(F)(F)F)n1 [Example D17] | 0.5 to 5 | 0.63
32 | NS(=O)(=O)N1CCC2(CC1)C[C@H]2c1noc(-c2ccccc2OCC(F)(F)F)n1 [Example D18] | 0.1 to 0.5 | 0.16
33 | Cc1ccc(-c2nc([C@@H]3CC34CCN(S(N)(=O)=O)CC4)no2)c(C)c1 [Example D19] | 0.1 to 0.5 | –
34 | NS(=O)(=O)N1CCC2(CC1)C[C@H]2c1noc(-c2ccccc2OC(F)(F)F)n1 [Example D20] | 0.1 to 0.5 | 0.2
35 | NS(=O)(=O)N1CCC2(CC1)C[C@H]2c1noc(-c2cc(F)ccc2OC(F)(F)F)n1 [Example D21] | 0.1 to 0.5 | 0.24
36 | NS(=O)(=O)N1CCC2(CC1)C[C@H]2c1noc(-c2cc(Cl)ccc2OC(F)(F)F)n1 [Example D22] | 0.1 to 0.5 | 0.41
37 | CC(C)(O)c1ccc(-c2nc([C@@H]3CC34CCN(S(N)(=O)=O)CC4)no2)cc1 [Example D23] | 0.5 to 5 | 1.4
38 | NS(=O)(=O)N1CCC2(CC1)C[C@H]2c1noc(-c2ccc(F)cc2OC(F)F)n1 [Example D24] | 0.1 to 0.5 | 0.24
39 | Cc1cc(C)c(-c2nc(C3CC34CCN(S(N)(=O)=O)CC4)no2)cc1C (centres unmarked) [Example D25] | 0.1 to 0.5 | 0.13
40 | NS(=O)(=O)N1CCC2(CC1)C(c1noc(-c3ccccc3C3CC3)n1)C2(F)F (centres unmarked) [Example D26] | < 0.1 | 0.013
41 | Cc1cn(C2CC2)c2ccc(-c3nc([C@@H]4CC45CCN(S(N)(=O)=O)CC5)no3)cc12 [Example E1] | 0.1 to 0.5 | 0.31
42 | Cc1ncccc1-c1nc([C@@H]2CC23CCN(S(N)(=O)=O)CC3)no1 [Example E2] | 0.5 to 5 | 1.1
43 | NS(=O)(=O)N1CCC2(CC1)C[C@H]2c1noc(Cc2c(F)cccc2C(F)(F)F)n1 [Example E4] | 5 to 50 | 7.2
44 | NS(=O)(=O)N1CCC2(CC1)C[C@H]2c1noc(Cc2cc(C(F)(F)F)ccc2F)n1 [Example E5] | 0.5 to 5 | –

Row | Structure (SMILES) | EC50 [1] [µM] | EC50 [2] [µM]
45 | Cc1cccc(C)c1Cc1nc([C@@H]2CC23CCN(S(N)(=O)=O)CC3)no1 [Example E6] | 0.5 to 5 | 0.93
46 | NS(=O)(=O)N1CCC2(CC1)C[C@H]2c1noc(Cc2cc(F)ccc2C(F)(F)F)n1 [Example E9] | 0.5 to 5 | –
47 | NS(=O)(=O)N1CCC2(CC1)C[C@H]2c1noc(C2(c3cc(F)ccc3F)CCC2)n1 [Example E10] | 0.5 to 5 | 3.4
48 | NS(=O)(=O)N1CCC2(CC1)C[C@H]2c1noc(Cc2ccc(F)cc2C(F)(F)F)n1 [Example E12] | 0.5 to 5 | 3.7
49 | NS(=O)(=O)N1CCC2(CC1)C[C@H]2c1noc(C2(c3cccc(C(F)(F)F)c3)CC2)n1 [Example E14] | 0.5 to 5 | 2
50 | Cc1ccc(C)c(-c2nc([C@@H]3CC34CCN(S(N)(=O)=O)CC4)no2)n1 [Example E16] | 0.5 to 5 | 1.3
51 | NS(=O)(=O)N1CCC2(CC1)C[C@H]2c1noc(-c2cccc(C(F)(F)F)n2)n1 [Example E17] | 0.5 to 5 | 1.4
52 | NS(=O)(=O)N1CCC2(CC1)C[C@H]2c1noc(-c2ccnc(OCC(F)(F)F)c2)n1 [Example E18] | 0.5 to 5 | 1.1
53 | Cc1ccc(C(F)(F)F)nc1-c1nc([C@@H]2CC23CCN(S(N)(=O)=O)CC3)no1 [Example E19] | 0.1 to 0.5 | 0.29
54 | NS(=O)(=O)N1CCC2(CC1)C[C@H]2c1noc(C2CC3(CCC3)C2)n1 [Example E20] | 0.5 to 5 | 2.7
55 | CCn1nc(C)cc1-c1nc([C@@H]2CC23CCN(S(N)(=O)=O)CC3)no1 [Example E21] | 0.1 to 0.5 | 0.4
56 | NS(=O)(=O)N1CCC2(CC1)C[C@H]2c1noc(-c2cnn(CC(F)(F)F)c2)n1 [Example E22] | 0.5 to 5 | 3
57 | NS(=O)(=O)N1CCC2(CC1)C[C@H]2c1noc(-c2ocnc2C(F)(F)F)n1 [Example E23] | 0.5 to 5 | 4.5
58 | CCc1ncoc1-c1nc([C@@H]2CC23CCN(S(N)(=O)=O)CC3)no1 [Example E24] | 0.5 to 5 | 3.6
59 | NS(=O)(=O)N1CCC2(CC1)C[C@H]2c1noc(-c2ccn(CC(F)(F)F)n2)n1 [Example E25] | 0.5 to 5 | 2.2
60 | NS(=O)(=O)N1CCC2(CC1)C[C@H]2c1noc(-c2conc2C2CC2)n1 [Example E26] | 0.5 to 5 | 0.57
61 | Cc1onc(-c2nc([C@@H]3CC34CCN(S(N)(=O)=O)CC4)no2)c1C [Example E27] | 0.5 to 5 | 1.3
62 | Cc1noc(C)c1Cc1nc([C@@H]2CC23CCN(S(N)(=O)=O)CC3)no1 [Example E28] | 0.5 to 5 | –
63 | NS(=O)(=O)N1CCC2(CC1)C[C@H]2c1noc(-c2conc2C(F)(F)F)n1 [Example E29] | 0.5 to 5 | 1.6
64 | NS(=O)(=O)N1CCC2(CC1)C[C@H]2c1noc(-c2ccnn2C2CC2)n1 [Example E30] | 0.5 to 5 | 0.78
65 | NS(=O)(=O)N1CCC2(CC1)C[C@H]2c1noc(-c2cc(-n3ccnc3)ncc2C(F)(F)F)n1 [Example E31] | 0.5 to 5 | 4.3
66 | Cn1ncc(C(F)(F)F)c1-c1nc([C@@H]2CC23CCN(S(N)(=O)=O)CC3)no1 [Example E32] | 0.1 to 0.5 | 0.33
